Data from patent publication US20240358692A1, “TREATMENT OF SCLERODERMA” (Aisa Pharma, Inc., priority 2023, published 2024).
Entries after “also recorded” stand apart in the source; their conditions may differ. Where two headings read alike, the source gives them in different places.

Experiments:
[1] = system: participants with SSc-RP; experiment: SHAQ - Standard Disability Index; type: in vivo, human
Text: The standard, validated, patient reported outcome measures tool for SSc patients, the Scleroderma Health Assessment Questionnaire (SHAQ), will be used to assess the participant qualify of life. Details are attached in the Appendix. The participant quality of life will be scored, and a disability index calculated for each questionnaire completed by the patient at Screening and each in-clinic visit. The absolute change in participant quality of life from baseline to the end of each dosing period will be calculated similar to frequency data as before.
The SHAQ is used to calculate a Disability Index to assess the participant qualify of life. The eight categories assessed by the Disability Index are 1) dressing and grooming, 2) arising, 3) eating, 4) walking, 5) hygiene, 6) reach, 7) grip, and 8) common daily activities. For each of these categories, patients report the amount of difficulty they have in performing two or three specific activities.
There are four possible responses for the Disability Index questions: • Without any difficulty=0 • With some difficulty=1 • With much difficulty=2 • Unable to do=3 • The highest score reported by the patient for any component question of the eight categories determines the score for that category. • If a component question is left blank or the response is too ambiguous to assign a score, then the score for that category is determined by the remaining completed question(s). • If all component questions are blank or if more than one answer is given, then follow up with the respondent is required. • If the respondent's mark is between the response columns, then move it to the closest one. If it's directly between the two, move it to the higher one.
This question results in a new set of category scores that are computed by adjusting the score for each category, if necessary, based on the patient's use of an aid or device or assistance for that category. If either devices and/or help from another person are checked for a category, the score is set to “2”, unless the score is already “3” (i.e., scores of “0” or “1” are increased to “2”). For example, if the highest score for the dressing category is “1”, and the patient says they use a device for dressing, the computed category score would be “2”. The sum of the computed categories scores is then calculated and divided by the number of categories answered. This gives a score in the 0 to 3 range.

[2] = system: participants with SSc-RP; type: in vivo
Text: Treatment-emergent AEs (TEAEs) are defined as AEs that occur or worsen after the dose of study drug. If the timing of the start of an AE could not be determined unambiguously from the start or end dates provided, it will be assumed to be a TEAE. An AE is considered related if the relationship to either of the study drug has been indicated as possibly or probably or definite related by the investigator. An AE leading to study withdrawal is defined as an AE that cause a subject early terminated from the study. AEs will be identified as emerging in the following parts: • TEAEs for Part A will be those that started during Part A (i.e., from the first dose in Part A to end of follow up of Part A) • TEAEs for Part B will be those that started during Part B (i.e., from the first dose in Part B to end of follow-up of Part B).
In this study, AEs and SAEs were reported for all participants from the time of randomization until the completion of the Follow-up/EOS visit. Adverse events that were ongoing at the EOS visit were marked as Not Recovered/Not resolved on the AE eCRF page (see Section 9.4.4). The Investigator did full AE review during in-clinic visit. All spontaneously volunteered and enquired for, as well as observed AEs, were recorded in the participant's medical records and the eCRF.
Severity of AEs were graded by the Investigator as one of: • Mild (Grade 1): A type of AE that is usually transient and may require only minimal treatment or therapeutic intervention.

[3] = pooled Cilnidipine 10 mg and Cilnidipine 10 mg + Tadalafil 5 mg
[4] = pooled Cilnidipine 20 mg and Cilnidipine 20 mg + Tadalafil 5 mg
[5] = pooled cilnidipine 10 mg and 20 mg arms (combination: + tadalafil 5 mg)

## COCCOC(=O)C1=C(C)NC(C)=C(C(=O)OC/C=C/c2ccccc2)C1c1cccc([N+](=O)[O-])c1 (stereo not drawn) [Cilnidipine]
[1]; [3]
  Standard Disability Index Change from Baseline Min: −0.31,
  Standard Disability Index Change from Baseline Q3: 0.000
  Standard Disability Index Day 12 Max: 1.50
  Standard Disability Index Day 12 Min: 0.00,
  Standard Disability Index Day 12 Q1: 0.188,
  Standard Disability Index Day 12 Q3: 1.125
  Standard Disability Index Percent Change from Baseline Max: 150.0%
  Standard Disability Index Percent Change from Baseline Mean: 7.50%
  Standard Disability Index Percent Change from Baseline Median: 0.00%
  Standard Disability Index Percent Change from Baseline Min: −62.5, %
  Standard Disability Index Percent Change from Baseline Q1: −25.00, %
  Standard Disability Index Percent Change from Baseline Q3: 0.00%
[1]; [4]
  Standard Disability Index Change from Baseline Max: 0.13
  Standard Disability Index Change from Baseline Mean: −0.092
  Standard Disability Index Change from Baseline Median: 0.000
  Standard Disability Index Change from Baseline Min: −0.52,
  Standard Disability Index Change from Baseline Q1: −0.250,
  Standard Disability Index Day 12 Max: 1.75
  Standard Disability Index Day 12 Median: 0.250
  Standard Disability Index Day 12 Min: 0.00,
  Standard Disability Index Day 12 Q1: 0.000,
  Standard Disability Index Day 12 Q3: 0.857
  Standard Disability Index Percent Change from Baseline Max: 100.0%
  Standard Disability Index Percent Change from Baseline Median: −33.33%
  Standard Disability Index Percent Change from Baseline Min: −66.7, %
  Standard Disability Index Percent Change from Baseline Q1: −37.66, %
  Standard Disability Index Percent Change from Baseline Q3: 7.69%
[1]; [5]
  Standard Disability Index Change from Baseline Max: 0.00
  Standard Disability Index Change from Baseline Mean: −0.054
  Standard Disability Index Change from Baseline Median: 0.000
  Standard Disability Index Change from Baseline Min: −0.25,
  Standard Disability Index Change from Baseline Q3: 0.000
  Standard Disability Index Day 12 Max: 1.50
  Standard Disability Index Day 12 Median: 0.125
  Standard Disability Index Day 12 Min: 0.00,
  Standard Disability Index Day 12 Q1: 0.000,
  Standard Disability Index Percent Change from Baseline Max: 0.0%
  Standard Disability Index Percent Change from Baseline Mean: −25.00%
  Standard Disability Index Percent Change from Baseline Min: −66.7, %
  Standard Disability Index Percent Change from Baseline Q1: −50.00, %
  Standard Disability Index Percent Change from Baseline Q3: 0.00%
[2]; 10 mg and 20 mg, alone or in combination with tadalafil
  tolerability: well tolerated
[2]; Cilnidipine 20 mg, HA, mild, n = 8
  Safety: number of AE: 1AE (HA−mild; 1
[2]; Cilnidipine 20 mg, n = 8
  Safety: withdrawals: 1AE (HA−mild; 1 withdrawal
[2]; Pooled Cilnidipine, n = 9
  Safety: withdrawals: T); no withdrawals
[2]; all patients who received any dose of cilnidipine (n=17)
  treatment discontinuations due to intolerance: no treatment discontinuations due to intolerance were reported
[2]; all patients who received any dose of cilnidipine (n=17), Part A
  incidence of Adverse Events / overall adverse event rate: 17%
[2]; any Profervia dose
  Adverse effects: 17% Adverse effects in
[2]; patients treated with cilnidipine, Part A
  severity grade of adverse events: only Grade 1 Adverse Events (AEs) were reported; also recorded: only mild (Grade 1) adverse events occurred
[2]; summary of data
  Safety: grade of Adverse Events (AEs): Grade 1 Adverse
  Safety: treatment D/Cs (discontinuations): No treatment D/Cs
